Laboratory results as given in patent US20160184201A1, “ANTIPERSPIRANT/DEODORANT COMPOSITIONS” (COLGATE-PALMOLIVE COMPANY, priority 2013, published 2016).

Tested on: Staphyloccus haemolyticus
Assay: Antimicrobial activity: minimum inhibition concentration by two-fold serial dilution in a 96-well plate (optical density, confirmed by agar streak)
Type: cell-based
Conditions: for bacterial growth in the first well of the 96-well plate: 1% L-Lactide solution
Protocol: 1. Formulate a 1% or 10000 ppm and 3% or 30000 ppm solution of the neat L-Lactide active tested by weight and vortex until homogeneous in a 50 mL centrifuge tube. 2. Place solutions in shaking incubator at 200 rpm and 37° C. for 1 hour. 3. Repeat the formulation of the solution and shaking incubation for 4 hour and 24 hour time points. 4. Label 96-well plate to indicate positive and negative controls and the active tested against an odor causing bacteria, Staphyloccus haemolyticus. 5. Using a 96-well plate, pipette 100 uL of Tryptic Soy Broth (TSB) into all of the wells. 6. In the first well, add 100 uL of the active solution or desired solvent for positive and negative controls to achieve a total of 200 uL in the first column of wells. 7. Set the multi-channel pipette to 100 uL and begin mixing the contents in the first column of wells and transfer 100 uL of the mixture into each successive well creating two-fold serial dilutions. 8. Repeat until the 12th column is reached making sure to dispose the 100 uL from the last well leaving 100 uL in all of the wells. 9. In the negative control wells add 100 uL of Phosphate Buffered Saline (PBS). Add 100 uL of bacteria (optical density equals to 0.1) to all other wells. 10. Incubate 96-well plate overnight at 37° C. or at room temperature for 48 hours. 11. Minimum inhibition concentration of the sample is determined by measuring the optical density of the 96 plate.

CC1OC(=O)C(C)OC1=O [L-Lactide, 3,6-dimethyl-1,4-dioxane-2,5-dione]
bacterial growth in the first well of the 96-well plate (1 hour of shaking incubation (200 rpm, 37° C.), first well, 4-fold dilution of the sample): some bacterial growth
bacterial growth in the first well of the 96-well plate (4 hours of incubation, same first well, 4-fold dilution): complete bacteria kill
bacterial growth in wells 1 and 2 of the 96-well plate (3% L-Lactide solution, 1 hour of shaking incubation, dilution factor 4 and 8 fold): no bacterial growth
bacterial growth in the third well of the 96-well plate (3% L-Lactide solution, 24 hours of shaking incubation, third well, dilution 16 fold): bacteria growth is prevented
